# Experimental data as given in PubChem BioAssay (NCI).
#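 A five-concentration, 48-hour dose response in 96-well plates underlies each endpoint, interpolated linearly between surrounding concentrations. GI50 marks 50% less growth. The concentration for full growth arrest is given as TGI.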
# Experiments:
# Assay in all cases: NCI-60 cell line screen, 48 h
# 786-0 renal = test system: 786-0 renal
# A498 renal = test system: A498 renal
# A549 NSCLC = test system: A549 NSCLC
# ACHN renal = test system: ACHN renal
# BT-549 breast = test system: BT-549 breast
# CAKI-1 renal = test system: CAKI-1 renal
# CCRF-CEM leukemia = test system: CCRF-CEM leukemia
# COLO 205 colon = test system: COLO 205 colon
# DU-145 prostate = test system: DU-145 prostate
# EKVX NSCLC = test system: EKVX NSCLC
# HCC-2998 colon = test system: HCC-2998 colon
# HCT-116 colon = test system: HCT-116 colon
# HCT-15 colon = test system: HCT-15 colon
# HL-60(TB) leukemia = test system: HL-60(TB) leukemia
# HOP-62 NSCLC = test system: HOP-62 NSCLC
# HOP-92 NSCLC = test system: HOP-92 NSCLC
# HS 578T breast = test system: HS 578T breast
# HT29 colon = test system: HT29 colon
# IGROV1 ovarian = test system: IGROV1 ovarian
# K-562 leukemia = test system: K-562 leukemia
# KM12 colon = test system: KM12 colon
# LOX IMVI melanoma = test system: LOX IMVI melanoma
# M14 melanoma = test system: M14 melanoma
# MALME-3M melanoma = test system: MALME-3M melanoma
# MCF7 breast = test system: MCF7 breast
# MDA-MB-231 breast = test system: MDA-MB-231 breast
# MDA-MB-435 = test system: MDA-MB-435
# MDA-MB-468 breast = test system: MDA-MB-468 breast
# MOLT-4 leukemia = test system: MOLT-4 leukemia
# NCI-H226 lung = test system: NCI-H226 lung
# NCI-H23 lung = test system: NCI-H23 lung
# NCI-H460 lung = test system: NCI-H460 lung
# NCI-H522 lung = test system: NCI-H522 lung
# OVCAR-3 ovarian = test system: OVCAR-3 ovarian
# OVCAR-4 ovarian = test system: OVCAR-4 ovarian
# OVCAR-5 ovarian = test system: OVCAR-5 ovarian
# OVCAR-8 ovarian = test system: OVCAR-8 ovarian
# PC-3 prostate = test system: PC-3 prostate
# RPMI-8226 leukemia = test system: RPMI-8226 leukemia
# RXF 393 renal = test system: RXF 393 renal
# SF-268 CNS = test system: SF-268 CNS
# SF-295 CNS = test system: SF-295 CNS
# SF-539 CNS = test system: SF-539 CNS
# SK-MEL-2 melanoma = test system: SK-MEL-2 melanoma
# SK-MEL-28 melanoma = test system: SK-MEL-28 melanoma
# SK-MEL-5 melanoma = test system: SK-MEL-5 melanoma
# SK-OV-3 ovarian = test system: SK-OV-3 ovarian
# SN12C renal = test system: SN12C renal
# SNB-19 CNS = test system: SNB-19 CNS
# SR leukemia = test system: SR leukemia
# SW-620 colon = test system: SW-620 colon
# T-47D breast = test system: T-47D breast
# TK-10 renal = test system: TK-10 renal
# U251 CNS = test system: U251 CNS
# UACC-257 melanoma = test system: UACC-257 melanoma
# UACC-62 melanoma = test system: UACC-62 melanoma
# UO-31 renal = test system: UO-31 renal
compound,measurement,setting,value
C=CC(=O)N1CCN(c2ccc3nc4c(nc3c2C(F)(F)F)C(=O)c2ncccc2C4=O)CC1,GI50,786-0 renal,9.96 µM
same,TGI,786-0 renal,66.6 µM
same,GI50,A498 renal,15.6 µM
same,TGI,A498 renal,29.8 µM
same,GI50,A549 NSCLC,3.05 µM
same,TGI,A549 NSCLC,14.7 µM
same,GI50,ACHN renal,6.41 µM
same,TGI,ACHN renal,20.5 µM
same,GI50,BT-549 breast,7.17 µM
same,TGI,BT-549 breast,20.3 µM
same,GI50,CAKI-1 renal,9.74 µM
same,TGI,CAKI-1 renal,38 µM
same,GI50,CCRF-CEM leukemia,2.99 µM
same,TGI,CCRF-CEM leukemia,> 98 µM
same,GI50,COLO 205 colon,2.42 µM
same,TGI,COLO 205 colon,7.83 µM
same,GI50,DU-145 prostate,6.16 µM
same,TGI,DU-145 prostate,20 µM
same,GI50,EKVX NSCLC,8.45 µM
same,TGI,EKVX NSCLC,21.9 µM
same,GI50,HCC-2998 colon,5.44 µM
same,TGI,HCC-2998 colon,18.1 µM
same,GI50,HCT-116 colon,2.67 µM
same,TGI,HCT-116 colon,7.4 µM
same,GI50,HCT-15 colon,2.39 µM
same,TGI,HCT-15 colon,11.9 µM
same,GI50,HL-60(TB) leukemia,3.34 µM
same,TGI,HL-60(TB) leukemia,> 98 µM
same,GI50,HOP-62 NSCLC,10.9 µM
same,TGI,HOP-62 NSCLC,39.8 µM
same,GI50,HOP-92 NSCLC,19 µM
same,TGI,HOP-92 NSCLC,57.1 µM
same,GI50,HS 578T breast,16.9 µM
same,TGI,HS 578T breast,56.4 µM
same,GI50,HT29 colon,3.27 µM
same,TGI,HT29 colon,11 µM
same,GI50,IGROV1 ovarian,2.9 µM
same,TGI,IGROV1 ovarian,12.3 µM
same,GI50,K-562 leukemia,4.4 µM
same,TGI,K-562 leukemia,> 98 µM
same,GI50,KM12 colon,4.61 µM
same,TGI,KM12 colon,55.3 µM
same,GI50,LOX IMVI melanoma,2.09 µM
same,TGI,LOX IMVI melanoma,6.37 µM
same,GI50,M14 melanoma,2.53 µM
same,TGI,M14 melanoma,12.3 µM
same,GI50,MALME-3M melanoma,1.3 µM
same,TGI,MALME-3M melanoma,2.67 µM
same,GI50,MCF7 breast,1.77 µM
same,TGI,MCF7 breast,5.48 µM
same,GI50,MDA-MB-231 breast,2.95 µM
same,TGI,MDA-MB-231 breast,10.7 µM
same,GI50,MDA-MB-435,1.68 µM
same,TGI,MDA-MB-435,3.21 µM
same,GI50,MDA-MB-468 breast,1.58 µM
same,TGI,MDA-MB-468 breast,3.67 µM
same,GI50,MOLT-4 leukemia,3.28 µM
same,TGI,MOLT-4 leukemia,21.2 µM
same,GI50,NCI-H226 lung,10.9 µM
same,TGI,NCI-H226 lung,27.7 µM
same,GI50,NCI-H23 lung,1.97 µM
same,TGI,NCI-H23 lung,9.88 µM
same,GI50,NCI-H460 lung,1.25 µM
same,TGI,NCI-H460 lung,3.75 µM
same,GI50,NCI-H522 lung,9.95 µM
same,TGI,NCI-H522 lung,23.8 µM
same,GI50,OVCAR-3 ovarian,2.24 µM
same,TGI,OVCAR-3 ovarian,6.35 µM
same,GI50,OVCAR-4 ovarian,2.41 µM
same,TGI,OVCAR-4 ovarian,6.7 µM
same,GI50,OVCAR-5 ovarian,11.8 µM
same,TGI,OVCAR-5 ovarian,25.2 µM
same,GI50,OVCAR-8 ovarian,2.99 µM
same,TGI,OVCAR-8 ovarian,11.6 µM
same,GI50,PC-3 prostate,2.52 µM
same,TGI,PC-3 prostate,> 98 µM
same,GI50,RPMI-8226 leukemia,3.1 µM
same,TGI,RPMI-8226 leukemia,40.7 µM
same,GI50,RXF 393 renal,3.59 µM
same,TGI,RXF 393 renal,15.8 µM
same,GI50,SF-268 CNS,7.76 µM
same,TGI,SF-268 CNS,63.6 µM
same,GI50,SF-295 CNS,4.1 µM
same,TGI,SF-295 CNS,16.9 µM
same,GI50,SF-539 CNS,3.39 µM
same,TGI,SF-539 CNS,11.7 µM
same,GI50,SK-MEL-2 melanoma,3.01 µM
same,TGI,SK-MEL-2 melanoma,13.2 µM
same,GI50,SK-MEL-28 melanoma,10.8 µM
same,TGI,SK-MEL-28 melanoma,28.2 µM
same,GI50,SK-MEL-5 melanoma,1.39 µM
same,TGI,SK-MEL-5 melanoma,2.67 µM
same,GI50,SK-OV-3 ovarian,19.4 µM
same,TGI,SK-OV-3 ovarian,79.6 µM
same,GI50,SN12C renal,2.27 µM
same,TGI,SN12C renal,8.31 µM
same,GI50,SNB-19 CNS,5.4 µM
same,TGI,SNB-19 CNS,20.1 µM
same,GI50,SR leukemia,3.18 µM
same,TGI,SR leukemia,> 98 µM
same,GI50,SW-620 colon,2.88 µM
same,TGI,SW-620 colon,11 µM
same,GI50,T-47D breast,2.66 µM
same,TGI,T-47D breast,9.9 µM
same,GI50,TK-10 renal,18.6 µM
same,TGI,TK-10 renal,97.6 µM
same,GI50,U251 CNS,3.11 µM
same,TGI,U251 CNS,13.3 µM
same,GI50,UACC-257 melanoma,1.72 µM
same,TGI,UACC-257 melanoma,4.16 µM
same,GI50,UACC-62 melanoma,2.05 µM
same,TGI,UACC-62 melanoma,5.31 µM
same,GI50,UO-31 renal,11 µM
same,TGI,UO-31 renal,25.7 µM
